Laboratory results as given in publication PMC8352984, “Estrogen mediates sex differences in preoptic neuropeptide and pituitary hormone production in medaka” (Communications Biology, 2021).

Columns and labels:
Format in all cases: cell-based, medaka (Oryzias latipes)
[1] = system: follicle-stimulating hormone β subunit (fshb) gene expression; assay: Ex vivo pituitary organ culture, real-time PCR of fshb; conditions: for fshb expression (in words): female pituitaries, 10^-5 M, 24 h, 25 °C, vs vehicle;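 for fshb expression (Fig. 8, fshb): relative expression with female control samples set to 1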
From the text: (§1) Fig. 8 Pacap and Vip have pleiotropic effects on the expression of anterior pituitary hormones. The effects of Pacap and Vip on gene expression levels of follicle-stimulating hormone β subunit (fshb), luteinizing hormone β subunit (lhb), thyroid-stimulating hormone β subunit (tshb), growth hormone (gh), somatolactin (sl), prolactin (prl), and pro-opiomelanocortin (pomc) were investigated by using male and female pituitaries cultured ex vivo (n = 6 per group, except male pituitary supplemented with Vip, where n = 5). Data were expressed as means with error bars representing standard error of the mean. Statistical differences were assessed by Dunnett’s post-hoc test. *p < 0.05; **p < 0.01; ***p < 0.001.
(§2) The pituitaries from five male or female fish were pooled for each sample and cultured ex vivo in Leibovitz’s L-15 medium supplemented with 5% charcoal-stripped fetal bovine serum as described elsewhere. The medium was further supplemented with 10^−5 M medaka Pacap or Vip, or vehicle alone. After 24 h of culture at 25 °C, the pituitaries were processed for total RNA extraction and cDNA synthesis by using the RNeasy Plus Micro Kit (Qiagen) and SuperScript VILO cDNA Synthesis Kit (Thermo Fisher Scientific), respectively. Real-time PCR was performed on the LightCycler 480 System II using LightCycler 480 SYBR Green I Master (Roche Diagnostics). The cycle conditions were: 95 °C for 5 min followed by 45 cycles of 95 °C for 10 sec, 60 °C for 10 sec and 72 °C for 10 sec. Melting curve analysis was performed as described above. Data were normalized to the geometric mean of three reference genes, actb, gapdh (encoding glyceraldehyde-3-phosphate dehydrogenase; National BioResource Project (NBRP) Medaka clone ID olbrno9_f15) and rpl13 (encoding ribosomal protein L13; NBRP Medaka clone ID olovano51_b24), according to Vandesompele et al.[63]. The primers used for real-time PCR are listed in Supplementary Table 3.

[2] = system: luteinizing hormone β subunit (lhb) gene expression; assay: Ex vivo pituitary organ culture, real-time PCR of lhb; conditions: for lhb expression (in words): 10^-5 M, 24 h, 25 °C, vs vehicle;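 for lhb expression (Fig. 8, lhb): relative expression with female control samples set to 1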
From the text: as §1, §2

[3] = system: thyroid-stimulating hormone β subunit (tshb) gene expression; assay: Ex vivo pituitary organ culture, real-time PCR of tshb; conditions: for tshb expression (in words): 10^-5 M, 24 h, 25 °C, vs vehicle
From the text: as §1, §2

[4] = system: somatolactin (sl) gene expression; assay: Ex vivo pituitary organ culture, real-time PCR of sl; conditions: for sl expression (in words): 10^-5 M, 24 h, 25 °C, vs vehicle
From the text: as §1, §2

[5] = system: prolactin (prl) gene expression; assay: Ex vivo pituitary organ culture, real-time PCR of prl; conditions: for prl expression (in words): 10^-5 M, 24 h, 25 °C, vs vehicle
From the text: as §1, §2

Pituitary adenylate cyclase-activating polypeptide [Pacap]
fshb expression (in words) [1]: significantly reduced | fshb expression (Fig. 8, fshb) ([1]; female, replicate 1): 0.383 | fshb expression (Fig. 8, fshb) ([1]; female, replicate 2): 0.806 | fshb expression (Fig. 8, fshb) ([1]; female, replicate 3): 0.807 | fshb expression (Fig. 8, fshb) ([1]; female, replicate 4): 0.427 | fshb expression (Fig. 8, fshb) ([1]; female, replicate 5): 0.650 | fshb expression (Fig. 8, fshb) ([1]; female, replicate 6): 0.545 | fshb expression (Fig. 8, fshb) ([1]; male, replicate 1): 0.173 | fshb expression (Fig. 8, fshb) ([1]; male, replicate 2): 0.236 | fshb expression (Fig. 8, fshb) ([1]; male, replicate 3): 0.293 | fshb expression (Fig. 8, fshb) ([1]; male, replicate 4): 0.230 | fshb expression (Fig. 8, fshb) ([1]; male, replicate 5): 0.290 | fshb expression (Fig. 8, fshb) ([1]; male, replicate 6): 0.452 | lhb expression (in words) ([2]; female pituitaries): increased | lhb expression (Fig. 8, lhb) ([2]; female, replicate 1): 2.134 | lhb expression (Fig. 8, lhb) ([2]; female, replicate 2): 1.510 | lhb expression (Fig. 8, lhb) ([2]; female, replicate 3): 1.040 | lhb expression (Fig. 8, lhb) ([2]; female, replicate 4): 2.513 | lhb expression (Fig. 8, lhb) ([2]; female, replicate 5): 1.735 | lhb expression (Fig. 8, lhb) ([2]; female, replicate 6): 1.319 | lhb expression (in words) ([2]; male pituitaries): increased | lhb expression (Fig. 8, lhb) ([2]; male, replicate 1): 3.240 | lhb expression (Fig. 8, lhb) ([2]; male, replicate 2): 1.453 | lhb expression (Fig. 8, lhb) ([2]; male, replicate 3): 3.021 | lhb expression (Fig. 8, lhb) ([2]; male, replicate 4): 2.751 | lhb expression (Fig. 8, lhb) ([2]; male, replicate 5): 1.229 | lhb expression (Fig. 8, lhb) ([2]; male, replicate 6): 1.907 | tshb expression (in words) ([3]; female pituitaries): no significant effects | tshb expression (Fig. 8, tshb) ([3]; female, replicate 1): 0.514 | tshb expression (Fig. 8, tshb) ([3]; female, replicate 2): 0.485 | tshb expression (Fig. 8, tshb) ([3]; female, replicate 3): 0.534 | tshb expression (Fig. 8, tshb) ([3]; female, replicate 4): 0.502 | tshb expression (Fig. 8, tshb) ([3]; female, replicate 5): 0.686 | tshb expression (Fig. 8, tshb) ([3]; female, replicate 6): 0.387 | tshb expression (in words) ([3]; male pituitaries): no significant effects | tshb expression (Fig. 8, tshb) ([3]; male, replicate 1): 0.207 | tshb expression (Fig. 8, tshb) ([3]; male, replicate 2): 0.364 | tshb expression (Fig. 8, tshb) ([3]; male, replicate 3): 1.165 | tshb expression (Fig. 8, tshb) ([3]; male, replicate 4): 0.157 | tshb expression (Fig. 8, tshb) ([3]; male, replicate 5): 2.250 | tshb expression (Fig. 8, tshb) ([3]; male, replicate 6): 0.895 | sl expression (in words) ([4]; female pituitaries): substantially increased | sl expression (Fig. 8, sl) ([4]; female, replicate 1): 5.138 | sl expression (Fig. 8, sl) ([4]; female, replicate 2): 3.103 | sl expression (Fig. 8, sl) ([4]; female, replicate 3): 4.426 | sl expression (Fig. 8, sl) ([4]; female, replicate 4): 3.042 | sl expression (Fig. 8, sl) ([4]; female, replicate 5): 2.318 | sl expression (Fig. 8, sl) ([4]; female, replicate 6): 4.074 | sl expression (in words) ([4]; male pituitaries): substantially increased | sl expression (Fig. 8, sl) ([4]; male, replicate 1): 1.710 | sl expression (Fig. 8, sl) ([4]; male, replicate 2): 1.255 | sl expression (Fig. 8, sl) ([4]; male, replicate 3): 1.415 | sl expression (Fig. 8, sl) ([4]; male, replicate 4): 1.513 | sl expression (Fig. 8, sl) ([4]; male, replicate 5): 0.886 | sl expression (Fig. 8, sl) ([4]; male, replicate 6): 2.724 | prl expression (in words) ([5]; female pituitaries): substantially increased | prl expression (Fig. 8, prl) ([5]; female, replicate 1): 3.510 | prl expression (Fig. 8, prl) ([5]; female, replicate 2): 4.473 | prl expression (Fig. 8, prl) ([5]; female, replicate 3): 4.149 | prl expression (Fig. 8, prl) ([5]; female, replicate 4): 4.897 | prl expression (Fig. 8, prl) ([5]; female, replicate 5): 3.291 | prl expression (Fig. 8, prl) ([5]; female, replicate 6): 4.279 | prl expression (in words) ([5]; male pituitaries): substantially increased | prl expression (Fig. 8, prl) ([5]; male, replicate 1): 1.555 | prl expression (Fig. 8, prl) ([5]; male, replicate 2): 3.928 | prl expression (Fig. 8, prl) ([5]; male, replicate 3): 2.640 | prl expression (Fig. 8, prl) ([5]; male, replicate 4): 1.612 | prl expression (Fig. 8, prl) ([5]; male, replicate 5): 3.371 | prl expression (Fig. 8, prl) ([5]; male, replicate 6): 6.401

vasoactive intestinal peptide [Vip]
fshb expression (in words) [1]: significantly reduced | fshb expression (Fig. 8, fshb) ([1]; female, replicate 1): 0.539 | fshb expression (Fig. 8, fshb) ([1]; female, replicate 2): 0.835 | fshb expression (Fig. 8, fshb) ([1]; female, replicate 3): 0.607 | fshb expression (Fig. 8, fshb) ([1]; female, replicate 4): 0.498 | fshb expression (Fig. 8, fshb) ([1]; female, replicate 5): 0.542 | fshb expression (Fig. 8, fshb) ([1]; female, replicate 6): 0.944 | fshb expression (Fig. 8, fshb) ([1]; male, replicate 1): 0.537 | fshb expression (Fig. 8, fshb) ([1]; male, replicate 2): 0.688 | fshb expression (Fig. 8, fshb) ([1]; male, replicate 3): 0.453 | fshb expression (Fig. 8, fshb) ([1]; male, replicate 5): 0.338 | fshb expression (Fig. 8, fshb) ([1]; male, replicate 6): 0.319 | lhb expression (in words) ([2]; female pituitaries): no significant effect | lhb expression (Fig. 8, lhb) ([2]; female, replicate 1): 0.807 | lhb expression (Fig. 8, lhb) ([2]; female, replicate 2): 0.719 | lhb expression (Fig. 8, lhb) ([2]; female, replicate 3): 1.380 | lhb expression (Fig. 8, lhb) ([2]; female, replicate 4): 0.757 | lhb expression (Fig. 8, lhb) ([2]; female, replicate 5): 0.750 | lhb expression (Fig. 8, lhb) ([2]; female, replicate 6): 0.836 | lhb expression (in words) ([2]; male pituitaries): no significant effect | lhb expression (Fig. 8, lhb) ([2]; male, replicate 1): 1.203 | lhb expression (Fig. 8, lhb) ([2]; male, replicate 2): 1.004 | lhb expression (Fig. 8, lhb) ([2]; male, replicate 3): 1.517 | lhb expression (Fig. 8, lhb) ([2]; male, replicate 5): 0.870 | lhb expression (Fig. 8, lhb) ([2]; male, replicate 6): 0.512 | tshb expression (in words) ([3]; female pituitaries): no significant effects | tshb expression (Fig. 8, tshb) ([3]; female, replicate 1): 1.106 | tshb expression (Fig. 8, tshb) ([3]; female, replicate 2): 0.773 | tshb expression (Fig. 8, tshb) ([3]; female, replicate 3): 0.549 | tshb expression (Fig. 8, tshb) ([3]; female, replicate 4): 1.002 | tshb expression (Fig. 8, tshb) ([3]; female, replicate 5): 0.461 | tshb expression (Fig. 8, tshb) ([3]; female, replicate 6): 0.560 | tshb expression (in words) ([3]; male pituitaries): no significant effects | tshb expression (Fig. 8, tshb) ([3]; male, replicate 1): 0.809 | tshb expression (Fig. 8, tshb) ([3]; male, replicate 2): 1.442 | tshb expression (Fig. 8, tshb) ([3]; male, replicate 3): 0.793 | tshb expression (Fig. 8, tshb) ([3]; male, replicate 5): 0.484 | tshb expression (Fig. 8, tshb) ([3]; male, replicate 6): 0.743 | sl expression (in words) ([4]; female pituitaries): substantially increased | sl expression (Fig. 8, sl) ([4]; female, replicate 1): 2.764 | sl expression (Fig. 8, sl) ([4]; female, replicate 2): 2.848 | sl expression (Fig. 8, sl) ([4]; female, replicate 3): 3.893 | sl expression (Fig. 8, sl) ([4]; female, replicate 4): 3.276 | sl expression (Fig. 8, sl) ([4]; female, replicate 5): 2.230 | sl expression (Fig. 8, sl) ([4]; female, replicate 6): 4.010 | sl expression (in words) ([4]; male pituitaries): substantially increased | sl expression (Fig. 8, sl) ([4]; male, replicate 1): 2.507 | sl expression (Fig. 8, sl) ([4]; male, replicate 2): 2.455 | sl expression (Fig. 8, sl) ([4]; male, replicate 3): 2.960 | sl expression (Fig. 8, sl) ([4]; male, replicate 5): 2.682 | sl expression (Fig. 8, sl) ([4]; male, replicate 6): 1.395 | prl expression (in words) ([5]; female pituitaries): substantially increased | prl expression (Fig. 8, prl) ([5]; female, replicate 1): 4.014 | prl expression (Fig. 8, prl) ([5]; female, replicate 2): 5.400 | prl expression (Fig. 8, prl) ([5]; female, replicate 3): 2.330 | prl expression (Fig. 8, prl) ([5]; female, replicate 4): 5.283 | prl expression (Fig. 8, prl) ([5]; female, replicate 5): 3.539 | prl expression (Fig. 8, prl) ([5]; female, replicate 6): 6.475 | prl expression (in words) ([5]; male pituitaries): substantially increased | prl expression (Fig. 8, prl) ([5]; male, replicate 1): 3.340 | prl expression (Fig. 8, prl) ([5]; male, replicate 2): 4.481 | prl expression (Fig. 8, prl) ([5]; male, replicate 3): 3.982 | prl expression (Fig. 8, prl) ([5]; male, replicate 5): 3.314 | prl expression (Fig. 8, prl) ([5]; male, replicate 6): 4.421
